Measurements as given in paper PMC9141032 (International Journal of Molecular Sciences, 2022).

Columns and labels:
[1] = Metabolic stability in human liver microsomes; assay type: in vitro ADME; conditions: HLM
Procedure: In the assay, the reaction was initiated by adding HLM (1 mg/mL) to an equal volume of buffer solution containing the test compound and cofactors at the proper concentrations. Reactions without NADPH were also incubated to rule out non-NADPH metabolism or chemical instability in the incubation buffer. Verapamil was included as a positive control to monitor incubation course. All reactions were terminated using 60 µL of ice-cold acetonitrile at 0, 5, 15, 30, 45, and 60 min. The plates were centrifugated at 3500 rpm for 15 min. All experiments were conducted in triplicate. Samples were monitored for B06 disappearance by LC-MS in MRM mode according to a quantitation method for B06. […]
concentration 1 μM, protein concentration 1 mg/mL, NADPH, 1.3 mM. Potassium phosphate buffer (100 mM) pH 7.4 and human liver microsomes, were purchased from Beckton Dickinson. […]
needed for the study was Beckman Coulter Refrigerated centrifuge, Agilent 1290 Infinity Liquid Chromatograph, CTC Analytics PAL HT‐xt injector, Api4000 Mass Spectrometer. Total incubation […]
Analysis: For the data analysis the area ratio of analyzed versus internal standard was used to calculate the percentage of remaning compound at each incubation time. The natural logarithm of […]
the following equation: Half‐life (T1/2) (min) = 0.693/k (the slope of the natural log of the percent remaining versus time). Intrinsic clearance was determined by the following equation: Clint H = Ln 2/t1/2 (min) x volume incubation (mL)/microsomal protein (mg) x 45 (MPPGL) 1500 g human liver/ 70 Kg human body weight. Units for CLint are usually expressed as mL/min/mg microsomal protein, MPPGL = referred to as mg microsomal protein per gram liver.
Table S1. Summary of LC‐MS conditions
Table S2. Percentage of verapamil remaining at each incubation time […]

adult rats = system: adult rats; parameters: method as in ref 33 = [33]; PMID 32150414; doi:10.1021/acs.jmedchem.9b02080; 33. Abás S. Rodríguez-Arévalo S. Bagán A. Griñán-Ferré C. Vasilopoulou F. Brocos-Mosquera I. Muguruza C. Pérez B. Molins E. Luque F.J. Bicyclic α-Iminophosphonates as High Affinity Imidazoline I 2 Rec; conditions: 20 and 35 mg/kg intraperitoneally, 1 and 2 h postinjection; cited from earlier work
SH-SY5Y cells [2] = assay: Cytotoxicity in SH-SY5Y cells (MTT); conditions: 24 h, 0.2 to 20 μM
SH-SY5Y cells [3] = assay: Nitrite production (Griess) in 6-OHDA-treated SH-SY5Y cells; assay type: cell-based, human; conditions: 1 μM, 6-OHDA 25 μM 16 h
Excerpt: Along with the neuronal loss, neuroinflammation is a process related to the onset of the disease, and it is an important contributor to the pathogenesis and progression of these disorders. […] .

SH-SY5Y cells [4] = assay: Active caspase 3 in 6-OHDA-treated SH-SY5Y cells (immunodetection, Western blot); conditions: 1 μM, 16 h after 6-OHDA
[5] = Metabolic stability in mouse liver microsomes; conditions: for % compound remaining: MLM
Procedure: The final concentration assay was 1
NADPH in 100 mM potassium phosphate buffer.
Spectrometer, Metabolite Pilot V 1.5 Software.
Method: Ionization mode, electrospray positive; adquisition mode, TOF MS with IDA MS/MS; column, Atlantis T3 C18, 2.1 x 15 mm, 3 μm; mobile phase, wa te r: acetonitrile: 0.1%: formic acid; flow rate, 0.3 mL/min; source temperature, 550 °C; column temperature, 25 °C; injection volume, 5 […]
concentration 1 mg/mL, NADPH 1.3 mM.
Table S5. Summary of LC‐MS conditions […]

[6] = Stability in mouse plasma; assay type: in vitro ADME; conditions: 10 µM, 37 °C
Procedure: The assessment of the plasma stability avoids misleading in vitro data and complex interpretation of the in vivo PK. […] Then, centrifugation led to a supernatant that was analysed for sample quantification.
Mouse plasma pooled from healthy donors extracted in citrate tubes was employed in the assay. […] Then, 100 µL of acetonitrile was added to precipitate the plasma protein, and the plate was centrifuged at 46,000× g for 60 min at 5 °C. Supernatant was taken and analysed by UPLC/MS/MS for sample quantification. The stationary phase was a reverse phase Acquity UPLC®BEH C18 1.7 µm (2.1 × 50 mm) (Waters), and the mobile phase was 0.1% formic acid in water/0.1% formic acid in acetonitrile, using a gradient and flow rate of 0.6 mL/min. The chromatographic equipment employed was an UPLC QSM Waters Acquity, and the compound concentrations were calculated from the MS peak areas.

mice = system: mice; parameters: method as in ref 33 = [33]; PMID 32150414; doi:10.1021/acs.jmedchem.9b02080; 33. Abás S. Rodríguez-Arévalo S. Bagán A. Griñán-Ferré C. Vasilopoulou F. Brocos-Mosquera I. Muguruza C. Pérez B. Molins E. Luque F.J. Bicyclic α-Iminophosphonates as High Affinity Imidazoline I 2 Rec; conditions: repeated administration of 20 mg/kg for 5 days; cited from earlier work
[7] = parameters: method as in ref 32, 33 = [32]; 32. Escolano C. Pallás M. Griñán-Ferré C. Abás S. Callado L.-F. García-Sevilla J.A. Synthetic I 2 Imidazoline Receptor Ligands for Prevention or Treatment of Human Brain Disorders Patent WO 2019/12185 || [33]; PMID 32150414; doi:10.1021/acs.jmedchem.9b02080; 33. Abás S. Rodríguez-Arévalo S. Bagán A. Griñán-Ferré C. Vasilopoulou F. Brocos-Mosquera I. Muguruza C. Pérez B. Molins E. Luque F.J. Bicyclic α-Iminophosphonates as High Affinity Imidazoline I 2 Rec; conditions: cited from earlier work
primary microglial cells = assay: Nitrite production (Griess) in LPS-treated primary microglia; conditions: 1 μM 1 h, then LPS 10 μg/mL 24 h

SMILES: CCOP(=O)(OCC)[C@]1(c2ccccc2)N=C[C@H]2C(=O)N(c3ccc(F)c(Cl)c3)C(=O)[C@H]21 (racemic) [B06, diethyl (1RS,3aSR,6aSR)-5-(3-chloro-4-fluorophenyl)-4,6-dioxo-1-phenyl-1,3a,4,5,6,6a-hexahydropyrrolo[3,4-c]pyrrole-1-phosphonate]
- hepatic clearance category ([1]; classification bands low/medium/high): medium clearance
- % compound remaining ([1]; minus NADPH, 0 min): 103.2 ± 13.82%
- % compound remaining ([1]; minus NADPH, 60 min): 75.30 ± 1.27%
- % compound remaining ([1]; plus NADPH, 0 min): 100.00 ± 14.46%
- % compound remaining ([1]; plus NADPH, 5 min): 98.60 ± 9.11%
- % compound remaining ([1]; plus NADPH, 15 min): 77.90 ± 13.20%
- % compound remaining ([1]; plus NADPH, 30 min): 54.10 ± 6.84%
- % compound remaining ([1]; plus NADPH, 45 min): 41.3 ± 5.83%
- % compound remaining ([1]; plus NADPH, 60 min): 29.40 ± 3.69%
- half-life at 1 μM ([1]; human, human liver microsomes, pH 7.4, 1 µM, 1 mg/mL protein): 28.4 min
- effect on body temperature (adult rats): hypothermia
- cytotoxic effect on cell cultures (MTT) (SH-SY5Y cells [2]): None of the concentrations used were cytotoxic
- effect on nitrite production (SH-SY5Y cells [3]): significantly reversed the increase in nitrite production
- effect on 6-OHDA-induced increase of cells expressing active caspase 3 (SH-SY5Y cells [4]): this effect was reversed by the treatment with B06
- % compound remaining ([5]; minus NADPH, 0 min): 105.00 ± 23.97%
- % compound remaining ([5]; minus NADPH, 60 min): 83.20 ± 2.87%
- % compound remaining ([5]; plus NADPH, 0 min): 100.00 ± 25.58%
- % compound remaining ([5]; plus NADPH, 5 min): 135.00 ± 7.06%
- % compound remaining ([5]; plus NADPH, 15 min): 67.50 ± 4.15%
- % compound remaining ([5]; plus NADPH, 30 min): 30.30 ± 5.28%
- % compound remaining ([5]; plus NADPH, 45 min): 15.20 ± 1.98%
- % compound remaining ([5]; plus NADPH, 60 min): 6.08 ± 0.01%
- half-life at 1 μM ([5]; mouse, microsomes): 16.2 min
- remaining percentage in mouse plasma ([6]; 0 min): 100%
- remaining percentage in mouse plasma ([6]; 10 min): 100%
- remaining percentage in mouse plasma ([6]; 20 min): 69.7%
- remaining percentage in mouse plasma ([6]; 40 min): 48.3%
- remaining percentage in mouse plasma ([6]; 60 min): 21.6%
- effect on body temperature (mice): hypothermia
- Pe value in PAMPA (BBB permeation) [7]: well above the threshold established for high BBB permeation
- effect on nitrite production (primary microglial cells): significant decrease in nitrite production
